Test results as given in ChEMBL document CHEMBL4373673, “Druggability profile of stilbene-derived PPAR agonists: determination of physicochemical properties and PAMPA study” (Medchemcomm, 2019).
Values after ≈ are worked out from the molar mass of the structure shown.

How the values were obtained:
[1] = Octanol/water partition coefficient, logP of compound by RP-UHPLC analysis; assay type: physicochemical
[2] = Thermodynamic solubility of compound in buffer containing HCl/KCl with 1% v/v DMSO at pH 1.2 incubated for 24 hrs by spectrophotometric analysis; assay type: physicochemical; conditions: for Therm_solubility: buffer, pH 1.2, 24 h; for solubility thermodynamic at 24 h: HCl/KCl buffer, pH 1.2, read-out: Therm_solubility
[3] = Thermodynamic solubility of compound in buffer containing KH2PO4/Na2HPO4 with 1% v/v DMSO at pH 6.8 incubated for 24 hrs by spectrophotometric analysis; assay type: physicochemical; conditions: for solubility thermodynamic at 24 h: KH2PO4/Na2HPO4 buffer, pH 6.8, read-out: Therm_solubility; for Therm_solubility: buffer, pH 6.8, 24 h
[4] = Thermodynamic solubility of compound in buffer containing KH2PO4/Na2HPO4 with 1% v/v DMSO at pH 7.4 incubated for 24 hrs by spectrophotometric analysis; assay type: physicochemical; conditions: for solubility thermodynamic at 24 h: KH2PO4/Na2HPO4 buffer, pH 7.4, read-out: Therm_solubility
[5] = Apparent solubility of compound in fasted state simulated intestinal fluid at pH 6.5 by spectrophotometric analysis; assay type: physicochemical
[6] = Apparent solubility of compound in fed state simulated intestinal fluid at pH 5 by spectrophotometric analysis; assay type: physicochemical
[7] = Kinetic solubility of compound in HDM-PAMPA with buffer containing 5% DMSO at pH 1.2 incubated for 5 hrs by spectrophotometric analysis; assay type: ADME; conditions: for solubility kinetic at 5 h: HDM-PAMPA buffer, pH 1.2, read-out: Kinetic_solubility; for Kinetic_solubility: pampa, pH 1.2, 5 h
[8] = Kinetic solubility of compound in HDM-PAMPA with buffer containing 5% DMSO at pH 6.8 incubated for 5 hrs by spectrophotometric analysis; assay type: ADME; conditions: for solubility kinetic at 5 h: HDM-PAMPA buffer, pH 6.8, read-out: Kinetic_solubility
[9] = Kinetic solubility of compound in HDM-PAMPA with buffer containing 5% DMSO at pH 7.4 incubated for 5 hrs by spectrophotometric analysis; assay type: ADME; conditions: read-out: Kinetic_solubility
[10] = Ratio of compound kinetic solubility to clofibric acid kinetic solubility in HDM-PAMPA with buffer containing 5% DMSO at pH 6.8 incubated for 5 hrs by spectrophotometric analysis
[11] = Ratio of compound kinetic solubility to clofibric acid kinetic solubility in HDM-PAMPA with buffer containing 5% DMSO at pH 7.4 incubated for 5 hrs by spectrophotometric analysis
[12] = Ratio of compound kinetic solubility to gemfibrozil kinetic solubility in HDM-PAMPA with buffer containing 5% DMSO at pH 6.8 incubated for 5 hrs by spectrophotometric analysis
[13] = Ratio of compound kinetic solubility to gemfibrozil kinetic solubility in HDM-PAMPA with buffer containing 5% DMSO at pH 7.4 incubated for 5 hrs by spectrophotometric analysis
[14] = Solubility of the compound in water; assay type: physicochemical

Row | Structure (SMILES) | logP [1] | Therm_solubility [2] | solubility thermodynamic at 24 h [3] [µg/mL] | solubility thermodynamic at 24 h [4] [µg/mL] | solubility [5] [µg/mL] | solubility [6] [µg/mL] | solubility kinetic at 5 h [7] [µg/mL] | solubility kinetic at 5 h [8] [µg/mL] | solubility kinetic at 5 h [9] [µg/mL] | Kinetic_solubility [7] | Ratio [10] | Ratio [11] | Ratio [12] | Ratio [13] | Therm_solubility [3] | Therm_solubility ([4]; buffer, pH 7.4, 24 h) | solubility thermodynamic at 24 h [2] [µg/mL] | Kinetic_solubility ([8]; pampa, pH 6.8, 5 h) | solubility [14] [µg/mL]
1 | CC(C)(Oc1ccc(CCCOc2ccc(/C=C/c3ccccc3)cc2)cc1)C(=O)O | 7.44 | Insoluble(Bld) | 27.9 (≈ 66.9 µM) | 26.9 (≈ 64.7 µM) | 24.8 (≈ 59.6 µM) | 13.8 (≈ 33.3 µM) | 0.89 (≈ 2.14 µM) | 44.2 (≈ 106 µM) | 43 (≈ 103 µM) | – | – | – | – | – | – | – | – | – | –
2 | CC(C)(Oc1ccc(CCOc2ccc(/N=N/c3ccccc3)cc2)cc1)C(=O)O | 6.63 | Insoluble(Bld) | 13.9 (≈ 34.5 µM) | 25.5 (≈ 62.9 µM) | 63.5 (≈ 157 µM) | > 100 | – | 300 (≈ 741 µM) | 296 (≈ 733 µM) | Insoluble(Bld) | 2 to 3 | 2 to 3 | 2 to 3 | 2 to 3 | – | – | – | – | –
3 | CC(C)(CCCOc1ccc(/C=C/c2ccccc2)cc1)C(=O)O | 6.95 | Insoluble(Bld) | – | – | 8.7 (≈ 26.8 µM) | 7.39 (≈ 22.8 µM) | – | 13.6 (≈ 41.9 µM) | 13 (≈ 40.1 µM) | Insoluble(Bld) | – | – | – | – | Insoluble(Bld) | Insoluble(Bld) | – | – | –
4 | CC(C)(Oc1ccc(Cl)cc1)C(=O)O [CLOFIBRIC ACID] | 2.96 | – | > 50 | > 50 | > 50 | > 50 | > 100 | > 100 | > 100 | – | – | – | – | – | – | – | > 50 | – | –
5 | COc1ccc(/C=C/c2ccc(OCCCC(C)(C)C(=O)O)cc2)cc1 | 6.08 | Insoluble(Bld) | – | 1.65 (≈ 4.66 µM) | 7.13 (≈ 20.1 µM) | 6.23 (≈ 17.6 µM) | – | – | 7.32 (≈ 20.7 µM) | Insoluble(Bld) | – | – | – | – | Insoluble(Bld) | – | – | Insoluble(Bld) | –
6 | Cc1ccc(C)c(OCCCC(C)(C)C(=O)O)c1 [GEMFIBROZIL] | 4.9 | – | > 25 | > 25 | > 25 | > 25 | 33.2 (≈ 133 µM) | > 120 | > 120 | – | – | – | – | – | – | – | 15.5 (≈ 61.8 µM) | – | –
7 | CC(C)(Oc1ccc(CCCOc2ccc(C(=O)/C=C/c3ccccc3)cc2)cc1)C(=O)O | 6.55 | Insoluble(Bld) | 16 (≈ 35.9 µM) | 17.5 (≈ 39.3 µM) | 19.6 (≈ 44.2 µM) | 17.8 (≈ 39.9 µM) | – | 68.4 (≈ 154 µM) | 67.6 (≈ 152 µM) | Insoluble(Bld) | – | – | – | – | – | – | – | – | –
8 | CCN(C)C(=O)Oc1cccc([C@H](C)N(C)C)c1 [RIVASTIGMINE] | – | – | – | – | – | – | – | – | – | – | – | – | – | – | – | – | – | – | 2040 (≈ 8150 µM)
